Experimental findings from US12247045B2, “MAP4K4 inhibitors” (Imperial College Innovations Limited, priority 2018, dated 2025) are described below.

Like-named read-outs stand apart in the source and are kept apart here.

One assay deals with ABL1 (Homo sapiens, UniProt P00519). As to the kind of experiment: Kinase selectivity panel, ABL1. The format is biochemical. An excerpt: (§1) The data in Table 42 also provides the fold selectivity of the two compounds in favour of MAP4K4 over the tested kinase. The fold selectivity is indicated in parenthesis.
ABL1, sequence (P00519 whole entry, species assumed): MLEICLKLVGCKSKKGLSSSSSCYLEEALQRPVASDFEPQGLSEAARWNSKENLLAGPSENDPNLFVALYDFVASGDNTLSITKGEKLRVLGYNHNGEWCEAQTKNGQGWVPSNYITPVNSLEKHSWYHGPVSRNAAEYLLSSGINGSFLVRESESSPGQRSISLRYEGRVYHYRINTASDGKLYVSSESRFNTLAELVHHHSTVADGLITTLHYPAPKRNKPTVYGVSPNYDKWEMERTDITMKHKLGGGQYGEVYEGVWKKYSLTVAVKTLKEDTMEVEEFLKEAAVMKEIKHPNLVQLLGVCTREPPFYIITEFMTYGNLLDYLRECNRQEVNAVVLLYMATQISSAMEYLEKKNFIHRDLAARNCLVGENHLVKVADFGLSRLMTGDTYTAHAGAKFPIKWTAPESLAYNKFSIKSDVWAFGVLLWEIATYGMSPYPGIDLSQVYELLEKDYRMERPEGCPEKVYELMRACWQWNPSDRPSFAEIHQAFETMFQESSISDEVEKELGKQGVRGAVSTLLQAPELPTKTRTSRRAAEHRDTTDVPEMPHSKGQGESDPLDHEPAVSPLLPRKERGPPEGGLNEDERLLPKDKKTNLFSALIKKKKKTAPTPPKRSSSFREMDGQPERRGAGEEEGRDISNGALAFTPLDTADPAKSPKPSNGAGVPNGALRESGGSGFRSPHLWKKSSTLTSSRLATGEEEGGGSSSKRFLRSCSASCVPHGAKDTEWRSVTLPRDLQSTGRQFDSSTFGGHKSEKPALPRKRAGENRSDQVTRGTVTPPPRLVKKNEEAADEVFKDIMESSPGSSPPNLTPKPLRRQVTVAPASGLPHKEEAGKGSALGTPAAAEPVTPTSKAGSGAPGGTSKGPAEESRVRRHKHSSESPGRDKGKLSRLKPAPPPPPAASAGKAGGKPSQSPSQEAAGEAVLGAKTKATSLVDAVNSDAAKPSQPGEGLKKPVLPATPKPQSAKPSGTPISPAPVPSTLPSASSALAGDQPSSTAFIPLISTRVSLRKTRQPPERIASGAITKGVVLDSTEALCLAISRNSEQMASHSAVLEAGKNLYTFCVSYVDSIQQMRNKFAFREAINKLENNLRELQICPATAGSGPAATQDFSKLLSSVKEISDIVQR
Another assay deals with KHS/MAP4K5 (Homo sapiens, UniProt Q9Y4K4). As to the kind of experiment: Kinase selectivity panel, KHS/MAP4K5. The format is biochemical.
KHS/MAP4K5, sequence (Q9Y4K4 whole entry): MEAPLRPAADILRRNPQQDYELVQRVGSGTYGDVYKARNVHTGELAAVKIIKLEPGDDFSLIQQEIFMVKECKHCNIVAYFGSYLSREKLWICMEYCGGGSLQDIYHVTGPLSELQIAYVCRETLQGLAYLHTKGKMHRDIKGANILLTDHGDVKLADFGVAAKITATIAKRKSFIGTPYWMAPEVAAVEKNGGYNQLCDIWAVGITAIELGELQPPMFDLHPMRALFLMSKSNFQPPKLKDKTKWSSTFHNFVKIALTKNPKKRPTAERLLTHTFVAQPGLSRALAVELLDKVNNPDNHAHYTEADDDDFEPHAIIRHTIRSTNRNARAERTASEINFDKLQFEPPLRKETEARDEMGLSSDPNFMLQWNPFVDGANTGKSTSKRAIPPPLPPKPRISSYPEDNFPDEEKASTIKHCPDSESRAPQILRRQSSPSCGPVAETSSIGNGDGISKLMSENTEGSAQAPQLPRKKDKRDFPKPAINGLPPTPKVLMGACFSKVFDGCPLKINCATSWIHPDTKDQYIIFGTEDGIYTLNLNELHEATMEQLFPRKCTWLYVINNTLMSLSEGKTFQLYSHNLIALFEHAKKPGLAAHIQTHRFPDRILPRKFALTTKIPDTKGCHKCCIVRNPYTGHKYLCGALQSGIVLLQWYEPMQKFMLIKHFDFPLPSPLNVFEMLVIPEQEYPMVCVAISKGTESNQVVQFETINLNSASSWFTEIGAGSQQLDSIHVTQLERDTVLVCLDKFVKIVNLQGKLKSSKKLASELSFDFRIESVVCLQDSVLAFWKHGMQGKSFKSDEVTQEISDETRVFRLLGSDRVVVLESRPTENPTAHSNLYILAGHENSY
Excerpt: as §1

The target in another assay is MLK1/MAP3K9 (Homo sapiens, UniProt P80192). As to the kind of experiment: Kinase selectivity panel, MLK1/MAP3K9. It counts as biochemical.
MLK1/MAP3K9, sequence (P80192 whole entry): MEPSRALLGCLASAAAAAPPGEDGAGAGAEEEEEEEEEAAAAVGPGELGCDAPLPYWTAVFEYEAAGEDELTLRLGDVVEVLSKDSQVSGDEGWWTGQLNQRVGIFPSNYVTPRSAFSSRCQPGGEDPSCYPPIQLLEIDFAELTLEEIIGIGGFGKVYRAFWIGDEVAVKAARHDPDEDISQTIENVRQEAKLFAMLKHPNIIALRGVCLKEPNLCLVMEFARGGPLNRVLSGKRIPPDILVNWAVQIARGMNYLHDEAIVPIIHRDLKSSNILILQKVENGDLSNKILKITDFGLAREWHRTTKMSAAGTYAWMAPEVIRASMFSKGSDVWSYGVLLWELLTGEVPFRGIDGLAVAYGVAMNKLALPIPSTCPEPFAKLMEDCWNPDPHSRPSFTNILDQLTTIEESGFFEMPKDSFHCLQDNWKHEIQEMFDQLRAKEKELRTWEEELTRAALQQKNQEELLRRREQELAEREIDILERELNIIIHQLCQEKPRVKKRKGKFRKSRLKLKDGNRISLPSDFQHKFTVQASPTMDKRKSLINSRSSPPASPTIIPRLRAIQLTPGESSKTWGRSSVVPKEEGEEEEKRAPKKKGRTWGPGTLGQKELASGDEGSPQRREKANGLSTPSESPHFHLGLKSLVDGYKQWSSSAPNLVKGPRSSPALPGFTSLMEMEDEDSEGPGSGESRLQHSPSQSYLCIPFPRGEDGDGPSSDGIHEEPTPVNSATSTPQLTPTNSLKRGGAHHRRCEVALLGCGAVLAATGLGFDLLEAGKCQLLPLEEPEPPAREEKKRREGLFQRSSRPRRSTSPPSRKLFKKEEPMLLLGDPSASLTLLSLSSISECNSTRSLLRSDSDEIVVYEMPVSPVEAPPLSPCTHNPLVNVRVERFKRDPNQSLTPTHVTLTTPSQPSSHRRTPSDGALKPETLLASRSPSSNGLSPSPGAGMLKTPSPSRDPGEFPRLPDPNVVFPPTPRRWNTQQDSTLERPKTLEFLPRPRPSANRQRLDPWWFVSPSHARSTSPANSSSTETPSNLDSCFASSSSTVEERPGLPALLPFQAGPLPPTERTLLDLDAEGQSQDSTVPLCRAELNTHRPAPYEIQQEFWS
Excerpt: as §1

The target of another assay is T1, NUAK1 (Homo sapiens, UniProt O60285).
T1 sequence (O60285 1-661): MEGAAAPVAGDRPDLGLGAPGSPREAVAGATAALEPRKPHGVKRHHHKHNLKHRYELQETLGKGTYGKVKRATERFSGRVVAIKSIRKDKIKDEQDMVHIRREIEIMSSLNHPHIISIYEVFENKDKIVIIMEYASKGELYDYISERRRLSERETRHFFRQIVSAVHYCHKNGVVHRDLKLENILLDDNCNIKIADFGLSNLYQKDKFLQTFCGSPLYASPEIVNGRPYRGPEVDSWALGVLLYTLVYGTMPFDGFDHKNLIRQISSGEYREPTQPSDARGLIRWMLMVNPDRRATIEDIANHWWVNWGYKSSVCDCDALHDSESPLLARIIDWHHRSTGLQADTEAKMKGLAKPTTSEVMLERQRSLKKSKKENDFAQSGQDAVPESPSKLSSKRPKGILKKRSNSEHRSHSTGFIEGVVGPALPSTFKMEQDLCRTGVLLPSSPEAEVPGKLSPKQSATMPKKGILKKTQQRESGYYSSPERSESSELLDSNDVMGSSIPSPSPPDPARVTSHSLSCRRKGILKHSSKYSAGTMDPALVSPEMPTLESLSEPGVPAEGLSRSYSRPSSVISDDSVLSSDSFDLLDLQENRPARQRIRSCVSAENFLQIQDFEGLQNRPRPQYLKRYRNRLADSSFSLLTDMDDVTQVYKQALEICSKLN
Description: Kinase selectivity panel, NUAK1. It counts as biochemical.
Excerpt: as §1

For assay [1], the system named is mice undergoing experimental myocardial infarction. As to the kind of experiment: Infarct size in mice undergoing experimental myocardial infarction. The format is in vivo. The note with it: compared to vehicle control (DMSO). How it is done: To test if target validation and compound development in hiPSC-CMs might predict success in a whole-animal context, mice undergoing experimental myocardial infarction were treated with Ex-78 or the vehicle control (DMSO) (FIG. 6). The suppression of cardiac muscle cell death achieved roughly a 55% reduction in infarct size as a proportion of the area at ischemic risk compared to control.

The target in assay [2] is T2, human MAP4K4 kinase domain (Homo sapiens, UniProt O95819).
T2 construct: 0.5 nM human MAP4K4 kinase domain (Invitrogen); purchased Invitrogen
T2 sequence (O95819 25-289 limits assumed): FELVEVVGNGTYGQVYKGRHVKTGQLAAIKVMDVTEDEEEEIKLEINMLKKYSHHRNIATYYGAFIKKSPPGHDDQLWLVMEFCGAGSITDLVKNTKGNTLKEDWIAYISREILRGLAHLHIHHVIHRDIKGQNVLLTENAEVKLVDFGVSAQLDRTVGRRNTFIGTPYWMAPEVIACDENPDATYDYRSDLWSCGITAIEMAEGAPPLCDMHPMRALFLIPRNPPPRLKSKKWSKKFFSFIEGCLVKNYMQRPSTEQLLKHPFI
Description: MAP4K4 kinase activity, CisBio HTRF Transcreener ADP assay. It counts as biochemical. The method, boiled down:
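HTRF Transcreener ADP read-out (665/620 nm ratio) of ADP formed by 0.5 nM kinase domain with 1 μM biotin-myelin basic protein substrate and ATP at Km (10 μM), 1% DMSO, 2 h reaction. IC50 values binned as A ≤100 nM, B 100 nM–1 μM, C >1 μM.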
For orientation: TR-FRET usually uses a lanthanide donor and a delayed reading to cut background.

The next assay deals with MINK1/MAP4K6 (Homo sapiens, UniProt Q8N4C8). As to the kind of experiment: Kinase selectivity panel, MINK1/MAP4K6. The format is biochemical. The note with it: read-out: pIC50 MINK1/MAP4K6 (converted).
Excerpt: as §1

The next assay concerns the target MLK3/MAP3K11 (Homo sapiens, UniProt Q16584). Description: Kinase selectivity panel, MLK3/MAP3K11. The format is biochemical.
Excerpt: as §1

The target in a further assay is Aurora B (Homo sapiens, UniProt Q96GD4). Description: Kinase selectivity panel, Aurora B. The format is biochemical. The note with it: in favour of MAP4K4.
Aurora B, sequence (Q96GD4 whole entry): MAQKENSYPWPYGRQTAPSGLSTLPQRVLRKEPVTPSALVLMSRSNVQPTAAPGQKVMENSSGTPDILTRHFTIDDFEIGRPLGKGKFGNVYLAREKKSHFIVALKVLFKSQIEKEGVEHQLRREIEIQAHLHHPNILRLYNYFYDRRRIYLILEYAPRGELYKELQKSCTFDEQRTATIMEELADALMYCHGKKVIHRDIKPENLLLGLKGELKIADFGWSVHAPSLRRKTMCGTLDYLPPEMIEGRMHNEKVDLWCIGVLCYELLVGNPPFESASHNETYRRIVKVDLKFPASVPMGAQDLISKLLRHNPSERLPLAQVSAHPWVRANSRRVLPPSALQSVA
Excerpt: as §1

A further assay deals with T3, GCK/MAP4K2 (Homo sapiens, UniProt Q12851).
T3 sequence (Q12851 1-820): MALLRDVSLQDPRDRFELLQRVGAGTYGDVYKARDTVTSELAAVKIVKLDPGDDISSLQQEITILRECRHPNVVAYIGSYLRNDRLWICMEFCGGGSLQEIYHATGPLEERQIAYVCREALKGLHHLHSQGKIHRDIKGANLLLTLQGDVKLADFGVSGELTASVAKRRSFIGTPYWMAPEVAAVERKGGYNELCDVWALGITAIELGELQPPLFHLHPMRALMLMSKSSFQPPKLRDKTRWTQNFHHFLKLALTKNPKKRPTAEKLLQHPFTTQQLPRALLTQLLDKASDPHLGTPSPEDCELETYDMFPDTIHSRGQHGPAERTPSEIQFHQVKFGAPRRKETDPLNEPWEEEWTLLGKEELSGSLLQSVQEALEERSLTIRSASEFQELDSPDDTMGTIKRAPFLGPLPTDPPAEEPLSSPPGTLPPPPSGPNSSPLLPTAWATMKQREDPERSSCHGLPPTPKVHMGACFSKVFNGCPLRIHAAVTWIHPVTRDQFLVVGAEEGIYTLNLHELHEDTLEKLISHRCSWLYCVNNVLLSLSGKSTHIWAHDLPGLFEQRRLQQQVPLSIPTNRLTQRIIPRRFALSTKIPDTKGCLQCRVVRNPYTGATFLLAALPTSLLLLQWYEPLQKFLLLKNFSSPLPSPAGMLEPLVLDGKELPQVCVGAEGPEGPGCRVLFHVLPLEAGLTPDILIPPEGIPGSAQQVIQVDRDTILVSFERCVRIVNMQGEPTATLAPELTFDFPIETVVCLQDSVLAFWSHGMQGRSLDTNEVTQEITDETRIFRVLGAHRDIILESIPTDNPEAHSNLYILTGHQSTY
As to the kind of experiment: Kinase selectivity panel, GCK/MAP4K2. It counts as biochemical.
Excerpt: as §1

The target in a further assay is TNIK/MAP4K7 (Homo sapiens, UniProt Q9UKE5). Description: Kinase selectivity panel, TNIK/MAP4K7. It counts as biochemical. The note with it: read-out: pIC50 TNIK/MAP4K7 (converted).
Excerpt: as §1

MLK3/MAP3K11, sequence (Q16584 whole entry): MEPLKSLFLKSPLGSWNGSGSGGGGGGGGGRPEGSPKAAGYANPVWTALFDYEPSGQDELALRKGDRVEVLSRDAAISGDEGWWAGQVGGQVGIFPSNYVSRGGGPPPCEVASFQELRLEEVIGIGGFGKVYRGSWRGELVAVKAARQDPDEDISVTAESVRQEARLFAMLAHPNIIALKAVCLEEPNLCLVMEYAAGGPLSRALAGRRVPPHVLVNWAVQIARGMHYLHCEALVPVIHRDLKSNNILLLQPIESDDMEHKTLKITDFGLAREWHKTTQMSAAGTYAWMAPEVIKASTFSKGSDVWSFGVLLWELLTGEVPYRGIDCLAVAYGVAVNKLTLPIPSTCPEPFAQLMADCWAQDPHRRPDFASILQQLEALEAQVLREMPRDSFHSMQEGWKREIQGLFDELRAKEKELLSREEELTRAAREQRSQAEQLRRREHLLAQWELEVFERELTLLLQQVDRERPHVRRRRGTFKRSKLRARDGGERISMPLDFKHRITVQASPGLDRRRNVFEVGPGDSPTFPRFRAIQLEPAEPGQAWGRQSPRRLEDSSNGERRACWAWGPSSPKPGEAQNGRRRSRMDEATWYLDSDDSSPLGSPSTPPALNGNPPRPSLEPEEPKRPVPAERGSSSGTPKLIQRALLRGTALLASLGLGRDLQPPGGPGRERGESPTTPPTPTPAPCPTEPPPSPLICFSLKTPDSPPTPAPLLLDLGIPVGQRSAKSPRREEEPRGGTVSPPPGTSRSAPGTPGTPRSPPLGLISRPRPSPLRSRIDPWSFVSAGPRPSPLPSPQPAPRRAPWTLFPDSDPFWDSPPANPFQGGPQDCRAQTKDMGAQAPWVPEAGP

For `CC(C)(O)CCOc1ccc(-c2cn(-c3cccnc3)c3nc[nH]c(=O)c23)cc1` [Ex-78, 5-(4-(3-hydroxy-3-methylbutoxy)phenyl)-7-(pyridin-3-yl)-3,7-dihydro-4H-pyrrolo[2,3-d]pyrimidin-4-one], on ABL1 (in favour of MAP4K4), the “fold selectivity MAP4K4 over ABL1” value is “(251) fold”. In addition, the IC50 at ABL1 (read-out: pIC50 ABL1 (converted)) was 7940 nM; on KHS/MAP4K5 (read-out: pIC50 KHS/MAP4K5 (converted)), 316 nM; at MLK1/MAP3K9 (read-out: pIC50 MLK1/MAP3K9 (converted)) it was 126 nM; on NUAK1 (read-out: pIC50 NUAK1 (converted)), 501 nM; in assay [2] (IC50 category, ATP at Km (10 μM), 0.5 nM kinase domain, 2 h, read-out: MAP4K4) it was at most 100 nM; in assay [2] (read-out: pIC50 MAP4K4 (converted)) it was 31.6 nM. The IC50 on MINK1/MAP4K6 was 63.1 nM; at MLK3/MAP3K11 (read-out: pIC50 MLK3/MAP3K11 (converted)), 251 nM; on GCK/MAP4K2 (read-out: pIC50 GCK/MAP4K2 (converted)) it was 1000 nM; at TNIK/MAP4K7, 126 nM. Moreover, at KHS/MAP4K5 (in favour of MAP4K4), the “fold selectivity MAP4K4 over KHS/MAP4K5” value was “(10) fold”. For the same compound, on MLK1/MAP3K9 (in favour of MAP4K4), the “fold selectivity MAP4K4 over MLK1/MAP3K9” value is “(4) fold”. Besides, on NUAK1 (in favour of MAP4K4), the “fold selectivity MAP4K4 over NUAK1” value is listed as “(16) fold”. In addition, in assay [1], the “reduction in infarct size as a proportion of the area at ischemic risk” value was about 55%. For the same compound, the “fold selectivity MAP4K4 over MLK3/MAP3K11” value at MLK3/MAP3K11 (in favour of MAP4K4) was “(8) fold”. The “fold selectivity MAP4K4 over Aurora B” value on Aurora B is on record as “(1000) fold”. Moreover, the “fold selectivity MAP4K4 over GCK/MAP4K2” value at GCK/MAP4K2 (in favour of MAP4K4) is “(32) fold”.
